SMILES strings stand for the structures. Bounds are passed on as bounds.

The experiment deals with genotype A, "Long" strain RSV. Nature of the experiment: RSV-A in vitro cytoprotection assay in HEp-2 cells (ATPlite readout of cell viability). It counts as cell-based, Human respiratory syncytial virus. As to conditions: human respiratory syncytial virus, HEp-2, HEp-2 cells, genotype A “Long” strain RSV, cytoprotection; read-out: Human RSV-A (“Long” strain) EC50. From the text:
RSV is a single stranded negative sense RNA virus that causes respiratory tract infections which can be dangerous to infants, the elderly, and immunosuppressed individuals. Currently there is no vaccine, and therapeutic options are both costly and of limited effectiveness. These approved treatments are Ribavirin, and Palivizumab/Synagis (a monoclonal antibody). RSV has two genotypes, A and B, which differ primarily in the structure of the virus' surface “G” attachment protein. Our current primary screen focuses on RSV-A and uses an in vitro cytoprotection assay where compounds are added in 2-fold dilutions to cells which are then subjected to fully replicative viral particles. Cell viability is measured several days later along with separate measurements of compound cytotoxicity. This report focuses on the results of our most recent screening of compounds.
HEp-2 cells, (originally derived from tumors grown in irradiated-cortisonised weanling rats that had been injected with epidermoid carcinoma tissue from a person's larynx, but later found to be indistinguishable from HeLa cells by PCR DNA analysis), were used for the culturing of genotype A, “Long” strain RSV. Flasks were inoculated with RSV and viral stocks were collected once cytopathic effect (CPE) was greater than 90%. Viral stocks in 25% sucrose media were snap frozen using liquid nitrogen to increase viral stability. Viral stock titers were quantified by tissue culture infectious dose 50% (TCID50) using 8,000 cells per well and 3-fold viral dilutions across a 96-well plate, cultured for 4 days.
Following extensive parameter testing, the final assay is run as follows: HEp-2 cells are seeded into the inner 60 wells of a 96-well plate at 8,000 cells per well in a volume of 50 μL using Growth Media (DMEM without phenol red, 1% L-Glut, 1% Penn/Strep, 1% nonessential amino acids, 10% FBS). 2-Fold serial dilutions of control and test compounds are added to the wells in duplicate in a total volume of 25 μL. Viral stock is then added to the wells in a volume of 25 μL, bringing the total volume of each well to 100 μL. Each 96-well plate has a control column of 6 wells with cells and virus but no compound (negative control, max CPE), a column with cells but no compound or virus (positive control, minimum CPE), and a column with no cells or virus or compound (background plate/reagent control). The control wells with cells but no virus are given an additional 25 uL of growth media containing an equal quantity of sucrose as those wells receiving the viral stock in order to keep consistent in media and volume conditions. The outer wells of the plate are filled with 125 μL of growth media to act as a thermal and evaporative moat around the test wells. Following a 4-day incubation period, the plates are read using ATPlite (50 uL added per well), which quantifies the amount of ATP (a measure of cell health) present in each well. Assay plates are read using the Envision luminometer. In parallel, cytotoxicity is examined on an additional 96-well plate treated in an identical manner, but substituting the 25 μL of viral stock for 25 μL of growth media. […] EC50 ranges are as follows: A <0.4 μM; B 0.4-0.8 μM; C >0.8 μM.
As for `O=C(NC1CC1)c1cc2c(s1)-c1ccccc1N(C(=O)c1cccc(N3CC4CCC(C3)O4)n1)CC2` [Example 28], the EC50 is below 400 nM. Under `O=C(NC1CC1)c1cc2c(s1)-c1ccccc1N(C(=O)c1cccc(N3C4CCC3COC4)n1)CC2` [Example 29] stands 400 to 800 nM; under `O=C(NC1CC1)c1cc2c(s1)-c1ccccc1N(C(=O)c1cccc(N3CCC(c4ccccc4)CC3)n1)CC2` [Example 30], above 800 nM; under `O=C(NC1CC1)c1cc2c(s1)-c1ccccc1N(C(=O)c1cccc(N3CCc4ccccc4CC3)n1)CC2` [Example 31], above 800 nM. Under `O=C(NC1CC1)c1cc2c(s1)-c1ccccc1N(C(=O)c1cccc(N3CCOc4ccccc4C3)n1)CC2` [Example 32] stands below 400 nM; under `COCCNc1cccc(C(=O)N2CCc3cc(C(=O)NC4CC4)sc3-c3ccccc32)n1` [Example 33], 400 to 800 nM. For the compound `COCCN(C)c1cccc(C(=O)N2CCc3cc(C(=O)NC4CC4)sc3-c3ccccc32)n1` [Example 34], the EC50 lay within 400 to 800 nM. The figure for `COCCCNc1cccc(C(=O)N2CCc3cc(C(=O)NC4CC4)sc3-c3ccccc32)n1` [Example 35] is 400 to 800 nM; for `CN1CCCN(c2cccc(C(=O)N3CCc4cc(C(=O)NC5CC5)sc4-c4ccccc43)n2)CC1` [Example 36] it is 400 to 800 nM; for `N[C@H]1CCN(c2cccc(C(=O)N3CCc4cc(C(=O)NC5CC5)sc4-c4ccccc43)n2)C1` [Example 37] it is above 800 nM.

Consider `N[C@@H]1CCN(c2cccc(C(=O)N3CCc4cc(C(=O)NC5CC5)sc4-c4ccccc43)n2)C1` [Example 38], for which the half-maximal effective concentration (EC50) is above 800 nM. The figure for `COc1ccc(C(=O)N2CCc3cc(C(=O)NC4CC4)sc3-c3ccccc32)nc1N1CCOCC1` [Example 39] is above 800 nM; for `COc1ccc(C(=O)N2CCc3cc(C(=O)NC4CC4)sc3-c3ccccc32)nc1N1CCCOCC1` [Example 40] it is 400 to 800 nM. On to `O=C(NC1CC1)c1cc2c(s1)-c1ccccc1N(C(=O)c1ccc(Cl)c(N3CCOCC3)n1)CC2` [Example 42], for which the EC50 lay in the range of 400 to 800 nM.

Take `O=C(NC1CC1)c1cc2c(s1)-c1ccccc1N(C(=O)c1ccc(Cl)c(N3CCCOCC3)n1)CC2` [Example 43]: the EC50 was 400 to 800 nM. The figure for `O=C(NC1CC1)c1cc2c(s1)-c1ccccc1N(C(=O)c1ccc(F)c(N3CCOCC3)n1)CC2` [Example 44] is 400 to 800 nM. Under `O=C(NC1CC1)c1cc2c(s1)-c1ccccc1N(C(=O)c1ccc(F)c(N3CCCOCC3)n1)CC2` [Example 45] stands below 400 nM; under `O=C(NC1CC1)c1cc2c(s1)-c1ccccc1N(C(=O)c1ccnc(N3CCOCC3)c1)CC2` [Example 46], above 800 nM. The figure for `O=C(NC1CC1)c1cc2c(s1)-c1ccccc1N(C(=O)c1cncc(N3CCOCC3)c1)CC2` [Example 47] is above 800 nM; for `O=C(NC1CC1)c1cc2c(s1)-c1ccccc1N(C(=O)c1cc(N3CCOCC3)ccn1)CC2` [Example 48] it is above 800 nM.

On to `O=C(NC1CC1)c1cc2c(s1)-c1ccccc1N(C(=O)c1cc(N3CCOCC3)ncn1)CC2` [Example 49], for which the EC50 is above 800 nM. As to `O=C(NC1CC1)c1cc2c(s1)-c1ccccc1N(C(=O)c1cc(N3CCCOCC3)ncn1)CC2` [Example 50], the EC50 is above 800 nM. Under `O=C(NC1CC1)c1cc2c(s1)-c1ccccc1N(C(=O)c1ccnc(N3CCOCC3)n1)CC2` [Example 51] stands 400 to 800 nM; under `O=C(NC1CC1)c1cc2c(s1)-c1ccccc1N(C(=O)c1ccnc(N3CCCOCC3)n1)CC2` [Example 52], 400 to 800 nM; under `O=C(NC1CC1)c1cc2c(s1)-c1ccccc1N(C(=O)c1cncc(N3CCOCC3)n1)CC2` [Example 53], 400 to 800 nM. The figure for `O=C(NC1CC1)c1cc2c(s1)-c1ccccc1N(C(=O)c1cccc(C3=CCNCC3)n1)CC2` [Example 54] is above 800 nM. Under `O=C(NC1CC1)c1cc2c(s1)-c1ccccc1N(C(=O)c1cccc(C3CCNCC3)n1)CC2` [Example 55] stands above 800 nM. With `O=C(NC1CC1)c1cc2c(s1)-c1ccccc1N(C(=O)c1cccc(C3=CCN(C4COC4)CC3)n1)CC2` [Example 56], the EC50 is above 800 nM. Under `O=C(NC1CC1)c1cc2c(s1)-c1ccccc1N(C(=O)c1cccc(C3CCN(C4COC4)CC3)n1)CC2` [Example 57] stands 400 to 800 nM; under `CC(=O)N1CCC(c2cccc(C(=O)N3CCc4cc(C(=O)NC5CC5)sc4-c4ccccc43)n2)CC1` [Example 58], 400 to 800 nM. `O=C(NC1CC1)c1cc2c(s1)-c1ccccc1N(C(=O)c1cccc(C3=CCOCC3)n1)CC2` [Example 59]: the EC50 lay within 400 to 800 nM. Turning to `O=C(NC1CC1)c1cc2c(s1)-c1ccccc1N(C(=O)c1cccc(C3CCOCC3)n1)CC2` [Example 60], the half-maximal effective concentration (EC50) fell in the range of 400 to 800 nM.

Regarding `O=C(NC1CC1)c1cc2c(s1)-c1ccccc1N(C(=O)c1cccc(NC3CCOCC3)n1)CC2` [Example 61], the EC50 is above 800 nM. For `COc1ccc(-c2cccc(C(=O)N3CCc4cc(C(=O)NC5CC5)sc4-c4ccccc43)n2)cc1` [Example 62], the EC50 was in the range of 400 to 800 nM. Under `CC(=O)c1ccc(-c2cccc(C(=O)N3CCc4cc(C(=O)NC5CC5)sc4-c4ccccc43)n2)cc1` [Example 63] stands 400 to 800 nM. Under `CC(C)(O)c1ccc(-c2cccc(C(=O)N3CCc4cc(C(=O)NC5CC5)sc4-c4ccccc43)n2)cc1` [Example 64] stands 400 to 800 nM; under `COc1ccc(-c2cccc(C(=O)N3CCc4cc(C(=O)NC5CC5)sc4-c4ccccc43)n2)cn1` [Example 65], below 400 nM; under `O=C(NC1CC1)c1cc2c(s1)-c1ccccc1N(C(=O)c1cccc(-c3ccc(N4CCOCC4)cc3)n1)CC2` [Example 66], 400 to 800 nM. Turning to `O=C(NC1CC1)c1cc2c(s1)-c1ccccc1N(C(=O)c1cccc(-c3cccc(N4CCOCC4)c3)n1)CC2` [Example 67], the EC50 is above 800 nM. With `O=C(NC1CC1)c1cc2c(s1)-c1ccccc1N(C(=O)c1cccc(-c3ccc(C(=O)N4CCOCC4)cc3)n1)CC2` [Example 68], the half-maximal effective concentration (EC50) was in the range of 400 to 800 nM. Take `O=C(NC1CC1)c1cc2c(s1)-c1ccccc1N(C(=O)c1cccc(-c3cccc(C(=O)N4CCOCC4)c3)n1)CC2` [Example 69]: the EC50 lay in the range of 400 to 800 nM. On to `COc1ccc(-c2nc(C(=O)N3CCc4cc(C(=O)NC5CC5)sc4-c4ccccc43)ccc2C#N)cn1` [Example 70], for which the EC50 was above 800 nM.

On to `O=C(NC1CC1)c1cc2c(s1)-c1ccccc1N(C(=O)c1ccc(F)c(-c3ccnc(N4CCOCC4)c3)n1)CC2` [Example 71], for which the EC50 lay in the range of 400 to 800 nM. As to `COc1cc(-c2cccc(C(=O)N3CCc4cc(C(=O)NC5CC5)sc4-c4ccccc43)n2)ccn1` [Example 72], the EC50 was 400 to 800 nM.

As to `O=C(NC1CC1)c1cc2c(s1)-c1ccccc1N(C(=O)c1cccc(-c3ccc(C(F)(F)F)nc3)n1)CC2` [Example 73], the EC50 lay in the range of 400 to 800 nM. As to `COCCOc1ccc(-c2cccc(C(=O)N3CCc4cc(C(=O)NC5CC5)sc4-c4ccccc43)n2)cn1` [Example 74], the EC50 is 400 to 800 nM. The figure for `CC(C)Oc1ccc(-c2cccc(C(=O)N3CCc4cc(C(=O)NC5CC5)sc4-c4ccccc43)n2)cn1` [Example 75] is 400 to 800 nM; for `O=C(NC1CC1)c1cc2c(s1)-c1ccccc1N(C(=O)c1cccc(-c3cnn(C4CCOCC4)c3)n1)CC2` [Example 76] it is 400 to 800 nM. Under `O=C(NC1CC1)c1cc2c(s1)-c1ccccc1N(C(=O)c1cccc(-c3ccc(C4CC4)nc3)n1)CC2` [Example 77] stands 400 to 800 nM; under `N#Cc1ccc(-c2cccc(C(=O)N3CCc4cc(C(=O)NC5CC5)sc4-c4ccccc43)n2)cn1` [Example 78], 400 to 800 nM. The figure for `O=C(NC1CC1)c1cc2c(s1)-c1ccccc1N(C(=O)c1cccc(-c3ccc(N4CCCC4)nc3)n1)CC2` [Example 80] is above 800 nM; for `O=C(NC1CC1)c1cc2c(s1)-c1ccccc1N(C(=O)c1cccc(-c3ccc(F)nc3)n1)CC2` [Example 81] it is 400 to 800 nM; for `CN(C)c1ccc(-c2cccc(C(=O)N3CCc4cc(C(=O)NC5CC5)sc4-c4ccccc43)n2)cn1` [Example 82] it is above 800 nM.

As for `CNC(=O)c1ccc(-c2cccc(C(=O)N3CCc4cc(C(=O)NC5CC5)sc4-c4ccccc43)n2)cn1` [Example 83], the EC50 lay in the range of 400 to 800 nM.
